Reference: PMC11134387, “Cancer-Stem-Cell Phenotype-Guided Discovery of a Microbiota-Inspired Synthetic Compound Targeting NPM1 for Leukemia” (JACS Au, 2024)

Columns and labels:
[1] = tested on: MCF-7-derived mamospheres; experiment: Formation of MCF-7-derived mamospheres (CSC tumorspheres); type: cell-based; settings: for inhibition at 10 µM / inhibition at 1 µM / inhibition at 5 µM: Homo sapiens, MCF7, read-out: Inhibition of tumorsphere formation (%) MCF-7; for inhibition at 1 µM: @1 µM (footnote b); for Formation of tumorspheres (in words): MCF-7 mamospheres and HCT-116 colonospheres, noncytotoxic concentration; for inhibition at 5 µM: @5 µM (footnote d)
Protocol: (§1) (BD Biosciences, Franklin Lakes, NJ, USA). All cells were maintained at 37 °C in a humidified incubator in an atmosphere of 5% CO2, and passaged every 2–3 days.
(§2) Additionally, they were cultured using RPMI media (Gibco/Life Technologies; Grand […]
(§3) Colonospheres, mamospheres and colony formation unit assays. 30.000 cells per well of MCF-7 cells (mamos pheres), HCT-116 cells (colonospheres) and CD34+ cells from patients (colony formation units) were seeded in serum free non- adherent medium or […]
(§4) MethoCult (Stem Cell). […]

[2] = tested on: HCT-116; experiment: Cytotoxic effect in colon tumor cell line (MTT); settings: for viability at 10 µM: HCT-116, read-out: Viability (%) HCT-116, @10 µM; for viability at 1 µM: HCT-116, read-out: Viability (%) HCT-116, @1 µM (footnote b)
Protocol: (§5) The cytotoxic effect was determined in breast (MCF-7) and colon (HCT-116) tumor cell lines using MTT assays.
(§6) Cells were seeded at 3 × 10^4 cells/mL in 96-well plates. The test compound was diluted in PBS. […] Viability was evaluated by MTT or WST-1 and dose/response curves were performed.

[3] = tested on: MCF-7; experiment: Cytotoxic effect in breast tumor cell line (MTT); settings: for viability at 10 µM / viability at 1 µM / viability at 5 µM: Homo sapiens; for viability at 10 µM: MCF7, read-out: Viability (%) MCF-7, @10 µM; for viability at 1 µM: MCF7, read-out: Viability (%) MCF-7, @1 µM (footnote b); for viability at 5 µM: MCF7, read-out: Viability (%) MCF-7, @5 µM (footnote d)
Protocol: as §5, §6

[4] = tested on: HCT-116-derived colonospheres; experiment: Formation of HCT-116-derived colonospheres (CSC tumorspheres); type: cell-based; settings: for inhibition at 1 µM: @1 µM (footnote b)
Protocol: as §1, §2, §3, §4

[5] = Viability of non-tumor fibroblast cell line; type: cell-based; settings: human, IMR90 non-tumor fibroblasts; for viability at 48 h, 1 µM: @1 µM (footnote b)
Protocol: The test compound was diluted in PBS.
Viability (%) tum orsphere form ation (%)

[6] = Plasma protein binding, equilibrium dialysis (RED); type: in vitro ADME; settings: mouse serum
Protocol: Based on the encouraging results obtained in ex vivo models of AML, we further assessed the therapeutic potential of the new NPM1 inhibitor in vivo. Prior to the evaluation of the compound in an animal model of AML, in vivo pharmacokinetic studies were addressed. Following a single intraperitoneal administration of UCM-13369 at a dose of 25 mg/kg, levels of 200–600 μg/L were detected in mouse peripheral blood up to 6 h (Figure 6A). Plasma protein binding of the compound in mouse serum was measured using an equilibrium dialysis assay, indicating a bound fraction of 83 ± 1%. Next, the efficacy of the compound was evaluated in immunodeficient mice after injection of OCI-AML3-ffLuc-GFP cells as an AML animal model. […]
coupled to a liquid nanochromatography Easy nLC 1200 System (Thermo Scientific).
Once digested, mutant NPM1 C+ C-end sample w as injected into a EASY-Spray™ C18 column, and digestion peptides were separated by using a lineal phase gradi ent (A: 0.1% formic acid in water; B: 20% acetonitrile, 0.1% formic acid in water) for 120 min. Spectra were acquired in DDA m ode, analyzing the 10 higher intensity parent ions in each cycl e.
Proteome Discoverer (Thermo Scientific) was used to align the spectra with the C-end […]
Random exclusion of AIRs was set to 2%. […] Clusters were classifi ed according to H ADDOCK score and stru ctures w er e analyzed with UCSF ChimeraX).10 […]

[7] = Homo sapiens, HCT-116, @10 µM, read-out: Inhibition of tumorsphere formation (%) HCT-116
[8] = Homo sapiens, HCT-116, read-out: Inhibition of tumorsphere formation (%) HCT-116

Row | SMILES | inhibition at 10 µM ([1]; @10 µM) [%] | viability at 10 µM ([2]; Homo sapiens) [%] | viability at 10 µM [3] [%] | inhibition at 10 µM [4, 7] [%] | also measured
1 | COc1ccc([C@@H]2CC(=O)N(CC3CC3)C[C@H]2N)cc1 [1a] | 0 | 70 ± 2 | 91 ± 7 | 0 | –
2 | COc1ccc(C2CC(=O)N(CC3CC3)CC2N)cc1 (stereo not shown) [1b] | 0 | 97 ± 2 | 80 ± 2 | 0 | –
3 | COc1ccc([C@@H]2CCN(CC3CC3)C[C@H]2N)cc1 [2a] | 0 | 90 ± 1 | 96 ± 3 | 0 | –
4 | COc1ccc([C@H]2CCN(CC3CC3)C[C@@H]2N)cc1 [2b] | 0 | 94 ± 3 | 97 ± 3 | 0 | –
5 | COc1ccc([C@@H]2CCNC[C@H]2NCC2CC2)cc1 [3a] | 0 | 95 ± 1 | 98 ± 2 | 0 | –
6 | COc1ccc([C@H]2CCNC[C@@H]2NCC2CC2)cc1 [3b] | 0 | 94 ± 3 | 95 ± 4 | 0 | –
7 | COc1ccc([C@@H]2Cc3[nH]c4ccccc4c3[C@H](CCNCC3CC3)[C@H]2N)cc1 [4a, 4-{2-[(Cyclopropylmethyl)amino]ethyl}-2-(4-methoxyphenyl)-2,3,4,9-tetrahydro-1H-carbazol-3-amine] | – | – | – | – | inhibition at 1 µM [1]: 0%; viability at 0.1 µM ([2]; Homo sapiens, HCT-116, read-out: Viability (%) HCT-116, @0.1 µM (footnote c)): 85 ± 2%; viability at 1 µM [3]: 92 ± 7%; inhibition at 0.1 µM ([4]; Homo sapiens, HCT-116, @0.1 µM (footnote c), read-out: Inhibition of tumorsphere formation (%) HCT-116): 0%
8 | COc1ccc([C@H]2Oc3ccccc3[C@H]3[C@@H](N)[C@H](c4ccc(OC)cc4)C(CNCC4CC4)=C[C@@H]32)cc1 [5a] | – | – | – | – | inhibition at 1 µM [1]: 100%; Formation of tumorspheres (in words) [1]: completely inhibit; viability at 48 h, 1 µM [5]: 83 ± 6%; viability at 48 h, 5 µM [5]: 20 ± 5%; viability at 1 µM ([2]; Homo sapiens): 87 ± 1%; viability at 1 µM [3]: 99 ± 1%; inhibition at 1 µM [4, 8]: 100%
9 | COc1ccc([C@H]2C(CNCC3CC3)=C[C@@H]3[C@H](c4ccccc4O[C@H]3c3ccc(OC)cc3)[C@@H]2N)cc1 [5b] | – | – | – | – | inhibition at 1 µM [1]: 100%; Formation of tumorspheres (in words) [1]: completely inhibit; viability at 48 h, 1 µM [5]: 98 ± 2%; viability at 48 h, 5 µM [5]: 28 ± 7%; viability at 1 µM ([2]; Homo sapiens): 94 ± 6%; viability at 1 µM [3]: 87 ± 1%; inhibition at 1 µM [4, 8]: 100%
10 | COc1ccc([C@@H]2C(CNCC3CC3)=C[C@H]3[C@@H](c4ccccc4OC3(C)C)[C@H]2N)cc1 [6a] | – | – | – | – | inhibition at 5 µM [1]: 100%; Formation of tumorspheres (in words) [1]: completely inhibit; viability at 48 h, 1 µM [5]: 95 ± 5%; viability at 48 h, 5 µM [5]: 53 ± 12%; viability at 1 µM ([2]; Homo sapiens): 81 ± 6%; viability at 5 µM [3]: 94 ± 11%; inhibition at 1 µM [4, 8]: 100%
11 | COc1ccc([C@H]2C(CNCC3CC3)=C[C@@H]3[C@H](c4ccccc4OC3(C)C)[C@@H]2N)cc1 [6b] | – | – | – | – | inhibition at 5 µM [1]: 100%; Formation of tumorspheres (in words) [1]: completely inhibit; viability at 48 h, 5 µM [5]: 57 ± 13%; viability at 1 µM ([2]; Homo sapiens): 78 ± 9%; viability at 5 µM [3]: 94 ± 5%; inhibition at 1 µM [4, 8]: 100%
12 | COc1ccc2c(c1)[C@H]1C(=NO)N(CC3CC3)C[C@@H]1C(C)(C)O2 [7a] | 0 | 92 ± 1 | 98 ± 1 | 0 | –
13 | COc1ccc2c(c1)C1C(=NO)N(CC3CC3)CC1C(C)(C)O2 (stereo not shown) [7b] | 0 | 95 ± 2 | 96 ± 2 | 0 | –
14 | COc1ccc2c(c1)[C@H]1CN(CC3CC3)C[C@@H]1C(C)(C)O2 [8a] | 0 | 94 ± 6 | 65 ± 1 | 0 | –
15 | COc1ccc2c(c1)C1CN(CC3CC3)CC1C(C)(C)O2 (stereo not shown) [8b] | 0 | 93 ± 2 | 98 ± 1 | 0 | –
16 | COc1ccc2c(c1)[C@H]1C(=O)N(CC3CC3)C[C@@H]1C(C)(C)O2 [9a] | 0 | 94 ± 2 | 73 ± 5 | 0 | –
17 | COc1ccc2c(c1)C1C(=O)N(CC3CC3)CC1C(C)(C)O2 (stereo not shown) [9b] | 0 | 90 ± 3 | 65 ± 2 | 0 | –
18 | COc1ccc([C@H]2Oc3ccccc3[C@@H](CN)[C@@H]2C(=O)NCC2CC2)cc1 [10a] | 4 ± 2 | 61 ± 8 | 89 ± 6 | 2 ± 1 | melting point: 175 to 177 °C
19 | COc1ccc([C@@H]2Oc3ccccc3[C@H](CN)[C@H]2C(=O)NCC2CC2)cc1 [10b] | 0 | 70 ± 1 | 94 ± 5 | 0 | –
20 | COc1ccc2c(c1)[C@@H](CN)[C@H](C(=O)NCC1CC1)C(C)(C)O2 [11a] | 0 | 94 ± 2 | 92 ± 2 | 0 | –
21 | COc1ccc2c(c1)[C@H](CN)[C@@H](C(=O)NCC1CC1)C(C)(C)O2 [11b] | 0 | 94 ± 2 | 99 ± 1 | 0 | –
22 | COc1ccc2c(c1)[C@@H](CN)[C@H](CNCC1CC1)C(C)(C)O2 [12a] | 0 | 90 ± 4 | 90 ± 2 | 0 | –
23 | COc1ccc2c(c1)[C@H](CN)[C@@H](CNCC1CC1)C(C)(C)O2 [12b] | 0 | 92 ± 3 | 73 ± 3 | 0 | –
24 | COc1ccc(C2C(CNCC3CC3)=Cc3nccnc3N2C)cc1 (stereo not shown) [13a] | 0 | 85 ± 7 | – | 0 | –
25 | COc1ccc(C2C(CNCC3CC3)=Cc3nccnc3N2C)cc1 (stereo not shown) [13b] | – | – | – | – | Inhibition of tumorsphere formation (%) MCF-7 ([1]; @10 µM): 0%; Viability (%) HCT-116 ([2]; @10 µM): 90 ± 3%; Viability (%) MCF-7 ([3]; @10 µM): 89 ± 6%; Inhibition of tumorsphere formation (%) HCT-116 ([4]; @10 µM): 0%
26 | CC(C)NCC(O)COc1cccc2ccccc12 (stereo not shown) [Propranolol, reference compound] | – | – | – | – | Plasma protein binding, bound fraction [6]: 86±2%
